Laboratory results as given in US20150290232A1, “DRUG COMPOSITION FOR TREATING TUMORS AND APPLICATION THEREOF” (priority 2012, published 2015).
Where two headings read alike, the source gives them in different places.

Key:
[1] = tested on: Jurkat cells (acute lymphoblastic leukemia); assay: MTT cell viability, leukemia cells, TTD and Acla A alone and combined; type: cell-based; conditions: Homo sapiens, 72 h; for IC50: read-out: concentration (IC50 value of 72 hours)
Experimental: (§1) Well-growing leukemia cells were obtained and inoculated into wells of a 96-well cell culture plate at 5000 cells/well. Individual compounds of various concentrations were added, mixed uniformly, and incubated (5% CO2) at 37° C. for 72 hours. Then the cell viability was determined by the MTT method.
(§2) b) Determine the inhibitory effects of TTD in combination with Ada A on leukemia cells in vitro. The pretreatment of the cells was the same as in a). The control group was not treated with the compound while administered. […] After 72 hours of incubation, the MTT method was used for the determination of cell viability. The cell viability of the control group was set to 100% in this experiment, and the TTD, Ada A single drug and combined effects on cell viability (%) were calculated.

[2] = tested on: k562/ADR leukemia cells (drug-resistant chronic myeloid leukemia); assay: as above; type: cell-based; conditions: Homo sapiens, 72 h; for IC50: read-out: concentration (IC50 value of 72 hours)
Experimental: as §1, §2

[3] = tested on: kasumi-1 cells (acute myeloid leukemia M2 type); assay: as above; type: cell-based; conditions: Homo sapiens; for IC50: read-out: concentration (IC50 value of 72 hours)
Experimental: as §1, §2

[4] = tested on: A549 transplanted tumor (human non-small cell lung cancer cell line); assay: Example 4: TTD on A549 transplanted tumor in nude mice; type: in vivo, BALB/c-nu nude mice; conditions: A549, TTD 50 mg/kg/time intragastric, 3 times a day, 10 days, Day 24; for tumor inhibition rate: control = 0
Experimental: (§3) Under sterile conditions, the above tumor cells were collected in the logarithmic growth phase. A549 was injected by subcutaneous injection in an amount of 1×10 7/0 2 mL/nude mice (cell viability>90%) into the right subaxillary of the nude mice, and Hep G2 was injected by subcutaneous injection in an amount of 1×10^7/0.2 mL/nude mice (cell viability>90%) into the left subaxillary of the nude mice thus establishing transplated tumor models of lung cancer and liver cancer respectively in nude mice. The administration was carried out from the second day after the inoculation. The experimental group was intragastrically administered at the experimentally designed amount, the negative control group is intragastrically administered with sterile water, and the positive control group was intragastrically administered with Jef. Each mouse was intragastrically administered in 0.4 ml each time and 3 times a day, at 8:00, 14:00 and 20:00. The administrations were successive for 10 days. The day before administration was deemed as Day 0 and the body weight and tumor size of the mice were determined every 5 days to produce a dynamic plot on body weight and tumor growth. On Day 24, the mice were sacrificed and the tumors were taken out and weighed. The tumor inhibition rate (%) was calculated after the effect of the medicament based on a tumor inhibition rate of the control group being zero.
(§4) The values determined were presented as mean±standard error (Mean±SD). The experimental data for each group was analyzed with One-way ANOVA method in the SPSS 18.0 statistical software, and p<0.05 means that the differences are statistically significant.

[5] = tested on: Hep G2 transplanted tumor (human hepatoma carcinoma cell); assay: Example 4: TTD on Hep G2 transplanted tumor in nude mice; type: in vivo, BALB/c-nu nude mice; conditions: Hep G2, TTD 50 mg/kg/time intragastric, 3 times a day, 10 days, Day 24
Experimental: as §3, with “The experimental group was intragastrically administered at the experimentally designed amount, the negative control group is intragastrically administered with sterile water, and the positive control group was intragastrically administered with Jef. Each mouse was intragastrically administered in 0.4 ml each time and 3 times a day, at 8:00, 14:00 and 20:00. The administrations were successive for 10 days.” left out, “On Day 24, the mice were sacrificed and the tumors were taken out and weighed.” left out
as §4

[6] = Example 4: body weight of tumor-bearing nude mice; type: in vivo, BALB/c-nu nude mice
Experimental: as §3, §4

[7] = tested on: A549 transplanted tumor (human non-small cell lung cancer cell line); assay: Example 5: Acla A on A549 transplanted tumor in nude mice; type: in vivo, BALB/c-nu nude mice
Experimental: (§5) Under sterile conditions, the above tumor cells were collected in the logarithmic growth phase. A549 was injected by subcutaneous injection in an amount of 6×10 6/0.2 mL/nude mice (cell viability>90%) into the right subaxillary of the nude mice, thus establishing transplated tumor models of lung cancer in nude mice. The mice were administered from the second day after the inoculation. The experimental group was intragastrically administered at the experimentally designed amount, the negative control group was intragastrically administered with sterile water, and the positive control group is intragastrically administered with Jef. Each mouse was intragastrically administered in 0.4 ml each time and 2 times a day, at 8:00, and 14:00. The administrations were successive for 14 days. The day before administration was deemed as Day 0 and the body weight and tumor size of the mice were determined every 5 days to produce a dynamic plot on body weight and tumor growth. On Day 20, the mice were sacrificed and the tumors were taken out and weighed. The tumor inhibition rate (%) was calculated after the effect of the medicament based on a tumor inhibition rate of the control group being zero.
as §4

[8] = Example 5: body weight of tumor-bearing nude mice; type: in vivo, BALB/c-nu nude mice
Experimental: as §5, with “The experimental group was intragastrically administered at the experimentally designed amount, the negative control group was intragastrically administered with sterile water, and the positive control group is intragastrically administered with Jef.” left out
as §4

[9] = tested on: leukemia mice; conditions: cited from earlier work
[10] = rats, cited from earlier work
[11] = tested on: mouse leukemia P388 and human gastric cancer cell line SGC-7901; conditions: 0.01 μg/ml, in vitro; cited from earlier work
[12] = tested on: leukemic cell lines L1210 and P388; conditions: mice inoculated with L1210 and P388, 0.5-5 mg/kg/day for 10 consecutive days; cited from earlier work
[13] = tested on: acute lymphoblastic leukemia (ANLL); conditions: initial treatment of ANLL; cited from earlier work

Work on COc1ccc2cc1Oc1ccc(cc1)C[C@H]1c3cc(c(OC)cc3CCN1C)Oc1c(OC)c(OC)cc3c1[C@H](C2)N(C)CC3 [TTD, tetrandrine] yielded a viability at 1.69 µg/mL ([1]; TTD 1.69 μg/mL, MTT, control = 100%, read-out: CV (cell viability)) of 52.3%, an IC50 ([1]; single compound, MTT) of 1.69 µg/mL and a viability at 0.6 µg/mL ([2]; k562/ADR, TTD 0.6 μg/mL, MTT, control = 100%, read-out: CV (cell viability)) of 48%. The IC50 ([2]; k562/ADR, single compound, MTT) was 0.6 µg/mL, the viability at 2 µg/mL ([3]; kasumi-1, TTD 2 μg/mL, 72 h, MTT, control = 100%, read-out: CV (cell viability)) was 51.7% and the IC50 ([3]; kasumi-1, single compound, 72 h, MTT) was 2 µg/mL. For the same compound, the Mass of tumor ([4]; Mean ± SD) was 0.23 ± 0.35 g, the tumor inhibition rate [4] was “up to 38%” and the tumor inhibition rate ([4]; listed as TTD50) was 38.02%. For the same compound, the Mass of tumor ([5]; Mean ± SD) was 0.53 ± 0.32 g, the tumor inhibition rate ([5]; control = 0) was −33.36% and the “body weight, Final” value ([6]; TTD 50 mg/kg/time intragastric, 3 times a day, 10 days, Day 24, Mean ± SD, n=3) was 20.6 ± 1.74 g. The “body weight, Initial” value ([6]; TTD 50 mg/kg/time intragastric, 3 times a day, 10 days, Mean ± SD, n=3) was 21.1 ± 0.25 g and the “dynamic variation of the body weight (in words)” value ([6]; TTD 50 mg/kg/time, during administration, recovered gradually after termination) was “partial reduction in the body weight”.
With CC[C@@]1(O)C[C@H](O[C@H]2C[C@H](N(C)C)[C@H](O[C@H]3C[C@H](O)[C@H](O[C@H]4CCC(=O)[C@H](C)O4)[C@H](C)O3)[C@H](C)O2)c2c(cc3c(c2O)C(=O)c2c(O)cccc2C3=O)[C@H]1C(=O)OC [Acla A, aclarubicin A] the “inhibitory effect on lung cancer transplanted tumor (in words)” value ([7]; A549, Acla A 1 mg/kg/time) was “did not exhibit good inhibitory effect”, the Mass of tumor ([7]; A549, Acla A 1 mg/kg/time intragastric, 2 times a day, 14 days, Day 20, Mean ± SD) was 0.50 ± 0.19 g and the tumor inhibition rate ([7]; A549, Acla A 1 mg/kg/time intragastric, 2 times a day, 14 days, Day 20, control = 0) was −51.52%. The “body weight, Final” value ([8]; Acla A 1 mg/kg/time intragastric, 2 times a day, 14 days, Day 20, Mean ± SD, n=3) was 18.5 ± 1.10 g, the “body weight, Initial” value ([8]; Acla A 1 mg/kg/time intragastric, 2 times a day, 14 days, Mean ± SD, n=3) was 21.0 ± 0.23 g and the “dynamic variation of the body weight (in words)” value ([8]; Acla A 1 mg/kg/time, during administration, recovered gradually after termination) was “partial reduction in the body weight”. For the same compound, the “prolonging the lifetime of the mice” value [9] was 143%, the “half-life t1/2” value ([10]; intravenous injection) was 16 to 21 h and the bioavailability ([10]; oral administration) was 35%. The “biological half-life t1/2” value ([10]; oral administration) was 36.5 h, the cloning formation inhibited [11] was 65.4% and the “survival rate increased, compared with mice without antibiotics injection” value [12] was 150%. The viability at 0.029 µg/mL ([1]; read-out: CV (cell viability)) was 58%, the IC50 [1] was 0.029 µg/mL and the viability at 0.09 µg/mL ([2]; K562/Adr, read-out: CV (cell viability)) was 49.1%. For the same compound, the IC50 ([2]; K562/Adr) was 0.09 µg/mL, the viability at 0.04 µg/mL ([3]; Kasumi 1, 72 h, read-out: CV (cell viability)) was 52.5% and the IC50 ([3]; Kasumi 1, 72 h) was 0.04 µg/mL. The “complete remission rate (CR)” value [13] was “up to 70%”.
